Reference: the NIST ThermoML archive (doi:10.1021/je050429b)

Conditions: Gas, Oscillating disk viscometry

CO [methanol]
Conditions | viscosity [mPa·s]
297.41 K, Amount density=10.1 mol/m3 | 0.009532
297.43 K, Amount density=8.17 mol/m3 | 0.009551
297.64 K, Amount density=3.79 mol/m3 | 0.009594
297.92 K, Amount density=38.68 mol/m3 | 0.009555
298.16 K, Amount density=6.32 mol/m3 | 0.009594
298.54 K, Amount density=13.2 mol/m3 | 0.009579
298.71 K, Amount density=49.53 mol/m3 | 0.009576
299.79 K, Amount density=32.22 mol/m3 | 0.009602
299.92 K, Amount density=24.58 mol/m3 | 0.009618
301.53 K, Amount density=17.93 mol/m3 | 0.009672
310.88 K, Amount density=24.58 mol/m3 | 0.009948
311.12 K, Amount density=17.93 mol/m3 | 0.009959
311.23 K, Amount density=8.17 mol/m3 | 0.01002
311.6 K, Amount density=32.22 mol/m3 | 0.009969
311.6 K, Amount density=38.68 mol/m3 | 0.009971
312.25 K, Amount density=6.32 mol/m3 | 0.01008
312.54 K, Amount density=3.79 mol/m3 | 0.0101
313.89 K, Amount density=10.1 mol/m3 | 0.01008
314.18 K, Amount density=13.2 mol/m3 | 0.01008
314.2 K, Amount density=49.53 mol/m3 | 0.01004
324.75 K, Amount density=3.79 mol/m3 | 0.0105
324.77 K, Amount density=49.53 mol/m3 | 0.01037
324.78 K, Amount density=32.22 mol/m3 | 0.01038
325.15 K, Amount density=8.17 mol/m3 | 0.0105
325.22 K, Amount density=10.1 mol/m3 | 0.0105
325.59 K, Amount density=17.93 mol/m3 | 0.01046
325.76 K, Amount density=13.2 mol/m3 | 0.01049
325.91 K, Amount density=6.32 mol/m3 | 0.01054
325.98 K, Amount density=24.58 mol/m3 | 0.01042
326.88 K, Amount density=38.68 mol/m3 | 0.01044
338.47 K, Amount density=8.17 mol/m3 | 0.01095
338.62 K, Amount density=10.1 mol/m3 | 0.01094
338.66 K, Amount density=32.22 mol/m3 | 0.01083
338.69 K, Amount density=3.79 mol/m3 | 0.01098
338.72 K, Amount density=38.68 mol/m3 | 0.0108
338.81 K, Amount density=49.53 mol/m3 | 0.01077
339.25 K, Amount density=17.93 mol/m3 | 0.01094
339.34 K, Amount density=13.2 mol/m3 | 0.01096
339.77 K, Amount density=6.32 mol/m3 | 0.01101
340.14 K, Amount density=24.58 mol/m3 | 0.01092
352.35 K, Amount density=49.53 mol/m3 | 0.01125
352.62 K, Amount density=8.17 mol/m3 | 0.01143
352.86 K, Amount density=10.1 mol/m3 | 0.01142
352.91 K, Amount density=3.79 mol/m3 | 0.01148
352.93 K, Amount density=3.79 mol/m3 | 0.01144
353.05 K, Amount density=8.17 mol/m3 | 0.01146
353.06 K, Amount density=38.68 mol/m3 | 0.01132
353.18 K, Amount density=38.68 mol/m3 | 0.01134
353.2 K, Amount density=49.53 mol/m3 | 0.01127
353.22 K, Amount density=13.2 mol/m3 | 0.01143
353.26 K, Amount density=13.2 mol/m3 | 0.01143
353.3 K, Amount density=6.32 mol/m3 | 0.01148
353.44 K, Amount density=10.1 mol/m3 | 0.01147
353.58 K, Amount density=17.93 mol/m3 | 0.01143
353.71 K, Amount density=24.58 mol/m3 | 0.01142
353.78 K, Amount density=32.22 mol/m3 | 0.01139
355.04 K, Amount density=32.22 mol/m3 | 0.01143
355.05 K, Amount density=24.58 mol/m3 | 0.01143
355.5 K, Amount density=6.32 mol/m3 | 0.01152
355.67 K, Amount density=17.93 mol/m3 | 0.01148
366.59 K, Amount density=10.1 mol/m3 | 0.01189
366.82 K, Amount density=8.17 mol/m3 | 0.01191
366.84 K, Amount density=3.79 mol/m3 | 0.01191
366.93 K, Amount density=17.93 mol/m3 | 0.01188
366.99 K, Amount density=32.22 mol/m3 | 0.01184
367.1 K, Amount density=13.2 mol/m3 | 0.01189
367.81 K, Amount density=49.53 mol/m3 | 0.01182
367.84 K, Amount density=6.32 mol/m3 | 0.01195
367.87 K, Amount density=38.68 mol/m3 | 0.01184
368.03 K, Amount density=24.58 mol/m3 | 0.0119
380.86 K, Amount density=10.1 mol/m3 | 0.01238
380.97 K, Amount density=13.2 mol/m3 | 0.01236
381.27 K, Amount density=3.79 mol/m3 | 0.0124
381.27 K, Amount density=49.53 mol/m3 | 0.0123
381.38 K, Amount density=8.17 mol/m3 | 0.01241
381.53 K, Amount density=17.93 mol/m3 | 0.01238
381.9 K, Amount density=38.68 mol/m3 | 0.01233
381.92 K, Amount density=32.22 mol/m3 | 0.01237
382.15 K, Amount density=6.32 mol/m3 | 0.01244
383.55 K, Amount density=24.58 mol/m3 | 0.01243
394.63 K, Amount density=10.1 mol/m3 | 0.01285
394.76 K, Amount density=8.17 mol/m3 | 0.01286
394.88 K, Amount density=49.53 mol/m3 | 0.01278
395.16 K, Amount density=32.22 mol/m3 | 0.01282
395.18 K, Amount density=24.58 mol/m3 | 0.01282
395.23 K, Amount density=17.93 mol/m3 | 0.01285
395.37 K, Amount density=38.68 mol/m3 | 0.01281
395.39 K, Amount density=3.79 mol/m3 | 0.01287
395.4 K, Amount density=13.2 mol/m3 | 0.01285
396.23 K, Amount density=6.32 mol/m3 | 0.01291
409.39 K, Amount density=13.2 mol/m3 | 0.01333
409.51 K, Amount density=10.1 mol/m3 | 0.01336
409.75 K, Amount density=24.58 mol/m3 | 0.01333
410.18 K, Amount density=32.22 mol/m3 | 0.01333
410.35 K, Amount density=38.68 mol/m3 | 0.01331
411.3 K, Amount density=3.79 mol/m3 | 0.01343
411.31 K, Amount density=6.32 mol/m3 | 0.01342
411.32 K, Amount density=49.53 mol/m3 | 0.01335
412.01 K, Amount density=17.93 mol/m3 | 0.01338
412.33 K, Amount density=8.17 mol/m3 | 0.01346
423.31 K, Amount density=8.17 mol/m3 | 0.01382
423.5 K, Amount density=3.79 mol/m3 | 0.01383
423.52 K, Amount density=49.53 mol/m3 | 0.01376
423.77 K, Amount density=13.2 mol/m3 | 0.01383
423.88 K, Amount density=32.22 mol/m3 | 0.0138
423.96 K, Amount density=10.1 mol/m3 | 0.01385
424.38 K, Amount density=17.93 mol/m3 | 0.01383
424.41 K, Amount density=24.58 mol/m3 | 0.01382
424.73 K, Amount density=6.32 mol/m3 | 0.01388
425.1 K, Amount density=38.68 mol/m3 | 0.0138
437.6 K, Amount density=10.1 mol/m3 | 0.01431
437.81 K, Amount density=8.17 mol/m3 | 0.01431
438.41 K, Amount density=13.2 mol/m3 | 0.01432
439.16 K, Amount density=32.22 mol/m3 | 0.01431
439.2 K, Amount density=24.58 mol/m3 | 0.01432
439.47 K, Amount density=17.93 mol/m3 | 0.01434
439.56 K, Amount density=49.53 mol/m3 | 0.0143
440.07 K, Amount density=6.32 mol/m3 | 0.01441
440.61 K, Amount density=3.79 mol/m3 | 0.01441
441.61 K, Amount density=38.68 mol/m3 | 0.01437
466.95 K, Amount density=24.58 mol/m3 | 0.01528
467.33 K, Amount density=10.1 mol/m3 | 0.0153
467.34 K, Amount density=38.68 mol/m3 | 0.01528
467.49 K, Amount density=49.53 mol/m3 | 0.01528
467.62 K, Amount density=32.22 mol/m3 | 0.01528
467.74 K, Amount density=13.2 mol/m3 | 0.01531
468.08 K, Amount density=17.93 mol/m3 | 0.01532
468.85 K, Amount density=3.79 mol/m3 | 0.01537
496.21 K, Amount density=38.68 mol/m3 | 0.01626
496.4 K, Amount density=8.17 mol/m3 | 0.01627
496.41 K, Amount density=17.93 mol/m3 | 0.01629
496.43 K, Amount density=13.2 mol/m3 | 0.01627
496.44 K, Amount density=24.58 mol/m3 | 0.01629
496.48 K, Amount density=49.53 mol/m3 | 0.01625
496.56 K, Amount density=10.1 mol/m3 | 0.01629
496.65 K, Amount density=3.79 mol/m3 | 0.01631
496.97 K, Amount density=32.22 mol/m3 | 0.0163
525.14 K, Amount density=49.53 mol/m3 | 0.01724
525.41 K, Amount density=3.79 mol/m3 | 0.01727
525.42 K, Amount density=8.17 mol/m3 | 0.01727
526.17 K, Amount density=32.22 mol/m3 | 0.01727
526.39 K, Amount density=13.2 mol/m3 | 0.01729
526.84 K, Amount density=24.58 mol/m3 | 0.0173
527.02 K, Amount density=38.68 mol/m3 | 0.01727
527.99 K, Amount density=17.93 mol/m3 | 0.01734
546.79 K, Amount density=8.17 mol/m3 | 0.018
546.84 K, Amount density=13.2 mol/m3 | 0.01798
547.13 K, Amount density=3.79 mol/m3 | 0.01802
547.3 K, Amount density=32.22 mol/m3 | 0.01801
547.49 K, Amount density=38.68 mol/m3 | 0.018
548.04 K, Amount density=49.53 mol/m3 | 0.01803
548.52 K, Amount density=17.93 mol/m3 | 0.01806
567.4 K, Amount density=13.2 mol/m3 | 0.01868
567.53 K, Amount density=32.22 mol/m3 | 0.01872
568.11 K, Amount density=38.68 mol/m3 | 0.01872
569.26 K, Amount density=3.79 mol/m3 | 0.01879
569.93 K, Amount density=49.53 mol/m3 | 0.01875
571.83 K, Amount density=17.93 mol/m3 | 0.01886
596.93 K, Amount density=13.2 mol/m3 | 0.01969
597.12 K, Amount density=32.22 mol/m3 | 0.01975
597.15 K, Amount density=17.93 mol/m3 | 0.01973
597.28 K, Amount density=49.53 mol/m3 | 0.01971
597.6 K, Amount density=3.79 mol/m3 | 0.01977
598.6 K, Amount density=38.68 mol/m3 | 0.01979
602.56 K, Amount density=8.17 mol/m3 | 0.01994
